Data: PubChem BioAssay AID504672 (Sanford-Burnham Center for Chemical Genomics, 2011)

System: S. cerevisiae tim10 strain, luminescence counterscreen
Test: TIM10 strain luminescence inhibitors – S. cerevisiae, uHTS hits, counter-screen for tim23-1 inhibitor project, dose response (AID 504672);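 note: yeast grew roughly 22 hours at 25 °C before the luminescence read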

Row | Structure (SMILES) | IC50 [µM]
1 | CC(C)(C)c1ccc(OCC(=O)NCc2ccco2)c(Br)c1 | 12.2
2 | COc1cc(/C=C/[N+](=O)[O-])ccc1OC(=O)c1cc2ccccc2oc1=O | 3.42
3 | COc1cccc(Nc2nc3ccc(OC)cc3s2)c1 | 11.2
4 | CCc1cccc2c(C(=O)CCl)c[nH]c12 | 25.1
5 | CC(C)n1cc(NC(=O)c2cc(-c3ccccc3)on2)cn1 | 14.3
6 | COc1cc(C(=O)N/N=C/c2coc3ccc(Cl)cc3c2=O)ccc1O | 6.59
7 | N=C1/C(=C\c2coc3ccccc3c2=O)C(=O)N=C2SC=CN12 | 7.35
8 | O=C(/C(=C/O)N=Nc1ccccc1)c1ccco1 | 11
9 | CC1(S(=O)(=O)O)CC(=O)c2ccccc2C1=O (configuration not stated) | 7.14
10 | O=C(Nc1ccc(-c2ccc(N3CCCCC3)nn2)cc1)c1ccco1 | 5.82
11 | Cc1cc(C)nc(SCC(=O)c2cc3ccccc3oc2=O)n1 | 32.1
12 | c1ccc2[nH]c(CSc3nc4ccccc4o3)nc2c1 | 18.6
13 | Cc1csc2nc(O)c(C(=O)NC3CCCCC3)c(=O)n12 | 9.27
14 | O=C(COC(=O)CC1CCCC1)Nc1ccc(Cl)cc1 | 7.89
15 | Cc1ccc2nc(N3C(=O)CNC3=S)sc2c1 | 21.1
16 | O=C(NCCCc1ccccc1)Nc1cccc(Cl)c1 | 5.13
17 | O=C(COc1ccccc1)N/N=C/c1ccc([N+](=O)[O-])o1 | 10.8
18 | Cn1c(C=O)c(C#Cc2ccccc2)c2ccccc21 | 5.53
19 | O=C(Nc1cccc(NC(=O)c2cccs2)c1)c1ccc(Br)o1 | 15
20 | N#C/C(=C\c1ccc(Cl)cc1)C(=O)NC1CC1 | 9.67
21 | CC(C)(C)c1csc(NC(=O)c2ccc(Cl)s2)n1 | 24.6

Row | Structure (SMILES) | IC50 [µM]
22 | O=C(N/N=C/c1ccc(Br)s1)c1cccs1 | 22.9
23 | Cc1cccc(C(=O)Oc2cccc3c(O)cccc23)c1 | 8.12
24 | Oc1ccc(Oc2ccc(Oc3ccc(O)cc3)cc2)cc1 | 30.4
25 | COc1ccc(C(=O)c2sc(Nc3ccccc3F)nc2N)cc1 | 16.5
26 | COc1ccc(C(=O)N/N=C\c2coc3ccc(Cl)cc3c2=O)cc1 | 32.5
27 | CC1CCN(c2ccc(-c3cccs3)nn2)CC1 | 8.39
28 | CC(C(Sc1ccccc1N)c1ccccc1)[N+](=O)[O-] (configuration not stated) | 5.26
29 | O=c1oc(-c2ccc(Br)o2)nc2ccccc12 | 8.59
30 | O=C(N/N=C/C(Br)=C/c1ccccc1)c1ccccc1F | 15.5
31 | COc1cccc2c1C(=O)C=C(C)C2=O | 13.2
32 | Cc1ccccc1[C@@]1(C)ON(c2ccccc2C(F)(F)F)C1=O | 3.74
33 | COc1ccc(C(C[N+](=O)[O-])c2c(-c3ccccc3)cc3ccccn23)cc1 (configuration not stated) | 9.28
34 | C=CCNC(=O)c1ccc2c3n(nc2c1)-c1ccc(Cl)cc1CO3 | 8.34
35 | CCOc1ccc(N=C(C)C2=C(O)c3ccccc3C2=O)cc1 | 26.4
36 | O=C(CSc1cccc[n+]1[O-])CSc1cccc[n+]1[O-] | 6.94
37 | C/C(=N\Nc1nc2ccccc2s1)c1cccs1 | 17
38 | CCOC(=O)c1c(-c2ccccc2)oc2ccc(O)cc12 | 10.2
39 | CCCC(=O)NC(c1ccc(C(C)C)cc1)c1ccc2cccnc2c1O (configuration not stated) | 7.76
40 | O=C(Oc1ccc(=O)n(-c2ccccc2)n1)c1ccc(Cl)cc1 | 34.7
41 | CN1C(=O)C(=Cc2ccccc2OS(=O)(=O)c2ccccc2)C(=O)N(C)C1=O | 5.92
42 | Cc1nc2nc(-c3cccs3)[nH]c2cc1Br | 14.9
